Source: patent publication US12344610B2, “APOL1 inhibitors and methods of use” (Maze Therapeutics, Inc., priority 2022, dated 2025)

How the values were obtained:
Format in all cases: cell-based
APOL1 G2 = biological target: T1, APOL1 G2 (Homo sapiens, UniProt O14791, DEL388-389); assay: APOL1-mediated calcium transport (calcium influx) assay, HEK T-REx/GCaMP6f/APOL1 G2 K6.3 cells, FLIPR TETRA; conditions: prevention of calcium influx; geometric mean of at least 2 assay runs; † = average of a technical replicate from a single assay run
T1 construct: expressed in transfected cells; host or cells: HEK293 T-REx clonal line stably expressing GCaMP6f (HEK T-REx/GCaMP6f/APOL1 G2 K6.3), doxycycline induced
T1 sequence (O14791 with tags, fused parts or gaps DEL388-389): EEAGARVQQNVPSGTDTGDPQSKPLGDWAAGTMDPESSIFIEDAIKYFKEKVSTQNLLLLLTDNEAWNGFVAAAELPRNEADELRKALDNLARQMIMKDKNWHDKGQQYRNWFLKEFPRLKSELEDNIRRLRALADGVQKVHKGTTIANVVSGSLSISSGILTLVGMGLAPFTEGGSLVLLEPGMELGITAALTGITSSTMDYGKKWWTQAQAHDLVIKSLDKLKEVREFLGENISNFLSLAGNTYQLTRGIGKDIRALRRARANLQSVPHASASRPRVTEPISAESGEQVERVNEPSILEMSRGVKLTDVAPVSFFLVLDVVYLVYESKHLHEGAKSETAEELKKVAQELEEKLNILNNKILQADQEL
Description: A HEK293 clonal cell line was generated to stably express GCaMP6f, a genetically encoded calcium indicator, and inducibly express APOL1 G2 (HEK T-REx/GCaMP6f/APOL1 G2 K6.3). Cells were maintained in the following standard complete medium: DMEM with 4.5 g/L glucose and sodium pyruvate (BioWhittaker, Lonza, BE12-614F), supplemented with 10% FBS Performance Plus (Gibco, 16000044), 1% penicillin-streptomycin (BioWhittaker, DE17-602E), 2 mM ultraglutamine-1 (BioWhittaker cat. BE 17-605/U1), 50 μg/mL Zeocin (InvivoGen, ant-zn), 2.5 μg/mL Blasticidin (InvivoGen, ant-bl-5), and 25 μg/mL Hygromycin (InvivoGen, ant-hg). Standard propagation conditions consisted of plating 9×10^6, 4×10^6, 2×10^6 cells in a T225 flasks to be processed after 2, 3, or 4 days, respectively.
A source plate was generated containing 20 serially diluted compounds in DMSO (duplicate 8-point dose response). Next, 0.8 μL of compounds were transferred from the source plate to a destination plate prefilled with 79.2 μL of Ca^2+ free Tyrode's buffer (130 mM NaCl, 5 mM KCl, 1 mM MgCl2, 5 mM NaHCO3, 20 mM HEPES at pH 7.4). The destination plate was placed on a plate shaker (5 seconds at 2000 rpm) to mix. […] All transfer and mixing steps were conducted with an CyBi®-Well dispenser.
Cells were split by gently washing with DPBS (Euroclone, ECB4004L), followed by a 5-minute incubation (humidified, 37° C. with 5% CO2) with trypsin-EDTA solution (Euroclone, ECB3052D). Detached cells were diluted with standard complete medium without selective agents, counted, and plated in a 384 MTP microplate (GR4332CPL, Twin Helix) (10,000 cells/well in 25 μl/well) using a MATRIX WellMate dispenser. Plates were placed into a humidified incubator (37° C. with 5% CO2) overnight. The following day, 20 μL of doxycycline (Sigma, D9891) at 20 ng/mL in standard complete medium was added to cells with a CyBi® Drop dispenser to induce APOL1 G2 expression. After a 6-hour incubation (humidified, 37° C. with 5% CO2), cells were washed 3 times with Ca^2+ free Tyrode's Buffer (130 mM NaCl, 5 mM KCl, 1 mM MgCl2, 5 mM NaHCO3, 20 mM HEPES at pH 7.4) using a BIOTEK Microplate washer, such that 10 μL of buffer remained in each well after the final wash. Assay plates were then stored at room temperature for 10 minutes. Next, 10 μL of diluted compounds were transferred to the assay plate from the 2× compound plate using a CyBi®-Well dispenser. Compound incubation was then carried out at room temperature for 10 minutes. The assay plate was transferred to the FLIPR^TETRA and 20 μL of 10 mM Ca^2+ (final concentration=5 mM) Tyrode's buffer was injected.
Unless otherwise specified, AC50 and values are reported as the geometric mean of at least 2 assay runs on separate days. Each run represents the average of a technical replicate, where each compound was assayed twice in the same plate. A superscript t symbol indicates a value from the average of a technical replicate from a single assay run, where each compound was assayed twice in the same plate.
The AC50 values in Table 39 below reflect the compound's ability to prevent calcium influx by inhibiting APOL1. […] Compounds in Table 39 are referred to by the corresponding Compound Number in Table 1, which is also referred to in the synthetic examples. When one or more of the numbered compounds are identified by stereochemistry (for example, (R)- or (S)-), the specific stereoisomer for which data is provided in Table 39 may be identified by the elution order of such compound as described in the synthetic examples. For example, Compounds 39 and 40 are associated with Step 5 of Example 13, where Compound 39 is the first eluting enantiomer, and Compound 40 is the second eluting enantiomer in the chiral separation of Compound 38. For Table 39 below, n/a represents “not available”.

[1] = system: HEK293 cells overexpressing APOL1 G2; assay: APOL1 G2 HEK293 cell rescue assay (reversal of cell death caused by overexpression of APOL1); conditions: geometric mean of at least 2 assay runs, † = single assay run
Description: Unless otherwise specified, EC50 values are reported as the geometric mean of at least 2 assay runs on separate days. Each run represents the average of a technical replicate, where each compound was assayed twice in the same plate. A superscript t symbol indicates a value from the average of a technical replicate from a single assay run, where each compound was assayed twice in the same plate. Compounds in Table 40 are referred to by the corresponding Compound Number in Table 1, which is also referred to in the synthetic examples. When one or more of the numbered compounds are identified by stereochemistry (for example, (R)- or (S)-), the specific stereoisomer for which data is provided in Table 40 may be identified by the elution order of such compound as described in the synthetic examples. Absolute stereochemistry of such compounds may be identified by methods known in the art. For Table 40 below, n/a represents “not available”.
Rescue EC50 values reported in Table 40 below represent the half-maximal effective concentration for reversal of cell death caused by overexpression of APOL1.

[2] = system: HEK293 clonal cell line overexpressing APOL1 G1; assay: APOL1 G1 HEK293 cell rescue assay (Example B3); conditions: geometric mean of at least 2 runs, † = single run, ¥ = concentration at 50% rescue estimated (no sigmoidal curve)
Description: Compounds were also assayed in a HEK293 clonal cell line overexpressing APOL1 G1 by a method similar to that shown in Example B2 above.
Unless otherwise specified, EC50 values are reported as the geometric mean of at least 2 assay runs on separate days. Each run represents the average of a technical replicate, where each compound was assayed twice in the same plate. A superscript † symbol indicates a value from the average of a technical replicate from a single assay run, where each compound was assayed twice in the same plate. A ¥ symbol represents compound concentration at 50% rescue estimated due to lack of sigmoidal curve preventing curve fitting. Compounds in Table 41 are referred to by the corresponding Compound Number in Table 1, which is also referred to in the synthetic examples. When one or more of the numbered compounds are identified by stereochemistry (for example, (R)- or (S)-), the specific stereoisomer for which data is provided in Table 41 may be identified by the elution order of such compound as described in the synthetic examples. Absolute stereochemistry of such compounds may be identified by methods known in the art. For Table 41 below, n/a represents “not available”.
Rescue EC50 values reported in Table 41 below represent the half-maximal effective concentration for reversal of cell death caused by overexpression of APOL1.

[3] = Homo sapiens, HEK293, HEK293 overexpressing APOL1 G2
[4] = Homo sapiens, HEK293, HEK293 clonal line overexpressing APOL1 G1
[5] = HEK293 clonal line overexpressing APOL1 G1

CC(COc1ccc(S(C)(=O)=O)cc1)N1CCC2(CC1)C(=O)N(C1CC(O)C1)c1ccc(Cl)cc12 (mixture of isomers) [Compound 205, 5-chloro-1′-[1-(4-methanesulfonylphenoxy)propan-2-yl]-1-[3-hydroxycyclobutyl]-1,2-dihydrospiro[indole-3,4′-piperidin]-2-one]
AC50 (APOL1 G2): 1220 nM | EC50 [1, 3]: 472 nM | EC50 [2, 4]: 1760 nM

C[C@@H](CN1CCC2(CC1)C(=O)Nc1ccc(Cl)cc12)Oc1ccc(S(C)(=O)=O)cc1 (single isomer, unassigned) [Compound 11]
AC50 (APOL1 G2): 1050 nM | EC50 [1, 3]: 1700 nM | EC50 [2, 4]: 2300 nM

CC(c1ccc(OCCN2CCC3(CC2)C(=O)Nc2ccc(Cl)cc23)cc1)S(C)(=O)=O (single isomer, unassigned) [Compound 40, 5-chloro-1′-(2-{4-[(1R) or (1S)-1-methanesulfonylethyl]phenoxy}ethyl)-1,2-dihydrospiro[indole-3,4′-piperidin]-2-one]
AC50 (APOL1 G2): 657 nM | EC50 ([1]; HEK293 overexpressing APOL1 G2): 72 nM | EC50 [2, 5]: 294 nM

N#Cc1ccc2c(c1)C1(CCN(CCOc3ccc4c(c3)CCN3C(=O)NCC43)CC1)C(=O)N2 (single isomer, unassigned) [Compound 119, (S) or (R)-2-oxo-1′-[2-({3-oxo-1H,2H,3H,5H,6H,10bH-imidazo[4,3-a]isoquinolin-8-yl}oxy)ethyl]-1,2-dihydrospiro[indole-3,4′-piperidine]-5-carbonitrile]
AC50 (APOL1 G2): 1010 nM | EC50 [1, 3]: 435 nM | EC50 [2, 4]: ~3400 nM

N#Cc1ccc2c(c1)C1(CCN(CCOc3ccc4c(c3)CCN3C(=O)CCC43)CC1)C(=O)N2 (single isomer, unassigned) [Compound 125, (S) or (R)-2-oxo-1′-[2-({3-oxo-1H,2H,3H,5H,6H,10bH-pyrrolo[2,1-a]isoquinolin-8-yl}oxy)ethyl]-1,2-dihydrospiro[indole-3,4′-piperidine]-5-carbonitrile]
AC50 (APOL1 G2): 729 nM | EC50 [1, 3]: 355 nM | EC50 [2, 5]: > 4860 nM

N#Cc1ccc2c(c1)C1(CCN(CCOc3ccc4c(c3)CCN3C(=O)CCC43)CC1)C(=O)N2 (single isomer, unassigned) [Compound 126, (R) or (S)-2-oxo-1′-[2-({3-oxo-1H,2H,3H,5H,6H,10bH-pyrrolo[2,1-a]isoquinolin-8-yl}oxy)ethyl]-1,2-dihydrospiro[indole-3,4′-piperidine]-5-carbonitrile]
AC50 (APOL1 G2): 624 nM | EC50 ([1]; HEK293 overexpressing APOL1 G2): 273 nM | EC50 [2, 5]: 1010 nM

CC(COc1ccc2c(c1)CCC(=O)N2C)N1CCC2(CC1)C(=O)Nc1ccc(Cl)cc12 (single isomer, unassigned) [Compound 201, chloro-1′-[(2R) or (2S)-1-[(1-methyl-2-oxo-1,2,3,4-tetrahydroquinolin-6-yl)oxy]propan-2-yl]-1,2-dihydrospiro[indole-3,4′-piperidin]-2-one]
AC50 (APOL1 G2): 909 nM | EC50 ([1]; HEK293 overexpressing APOL1 G2): 609 nM | EC50 [2, 5]: 4920 nM

CC(COc1ccc2c(c1)CCC(=O)N2C)N1CCC2(CC1)C(=O)Nc1ccc(C#N)cc12 (single isomer, unassigned) [Compound 204, (R) or (S)-1′-{1-[(1-methyl-2-oxo-1,2,3,4-tetrahydroquinolin-6-yl)oxy]propan-2-yl}-2-oxo-1,2-dihydrospiro[indole-3,4′-piperidine]-5-carbonitrile]
AC50 (APOL1 G2): 869 nM | EC50 ([1]; HEK293 overexpressing APOL1 G2): 1550 nM | EC50 [2, 5]: 1270 nM

C[C@]1(O)C[C@@H](n2c(=O)cc(C(F)(F)F)c3cc(OCCN4CCC5(CC4)C(=O)Nc4ccc(Cl)cc45)cnc32)C1 [Compound 341, 5-chloro-1′-[2-({7-oxo-8-[(cis)-3-hydroxy-3-methylcyclobutyl]-5-(trifluoromethyl)-7,8-dihydro-1,8-naphthyridin-3-yl}oxy)ethyl]-1,2-dihydrospiro[indole-3,4′-piperidin]-2-one]
AC50 (APOL1 G2): 1060 nM | EC50 [1, 3]: 41.5 nM

C[C@]1(O)C[C@@H](n2c(=O)cc(C(F)(F)F)c3cc(OCCN4CCC5(CC4)C(=O)Nc4ccc(C(F)F)cc45)cnc32)C1 [Compound 342, 5-(difluoromethyl)-1′-[2-({7-oxo-8-[(cis)-3-hydroxy-3-methylcyclobutyl]-5-(trifluoromethyl)-7,8-dihydro-1,8-naphthyridin-3-yl}oxy)ethyl]-1,2-dihydrospiro[indole-3,4′-piperidin]-2-one]
AC50 (APOL1 G2): 780 nM | EC50 [1, 3]: 90.2 nM

C[C@]1(O)C[C@@H](n2cnc3cc(OCCN4CCC5(CC4)C(=O)Nc4ccc(C#N)cc45)cc(F)c32)C1 [Compound 455, 1′-(2-((7-fluoro-1-((cis)-3-hydroxy-3-methylcyclobutyl)-1H-benzo[d]imidazol-5-yl)oxy)ethyl)-2-oxospiro[indoline-3,4′-piperidine]-5-carbonitrile]
AC50 (APOL1 G2): 1250 nM | EC50 [1, 3]: 75.3 nM
